Data taken from patent US20040023972A1, “Use of substituted imidazo[1,2-a]-pyridin-, -pyrimidin-and-pyrazin-3-yl-amine derivatives in the preparation of medicaments for inhibiting NOS” (Gruenenthal GmbH, priority 2000, published 2004).

Target: T1, NO synthase (Rattus norvegicus, UniProt P29476)
T1 construct: the supernatant was then removed by decantation and frozen in portions at −80° C; from tissue; host or cells: rat cerebellum, 20,000 g supernatant of homogenate
Test: HTS-NOS assay (NOS assay): conversion of radioactive arginine, cation-exchanger filter plate
Format: biochemical
Details: 10 μM
Summary of the method: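 Rat cerebellum supernatant as NOS source, incubated with radiolabelled arginine plus cofactors including NADPH at 25 °C for 5-60 min depending on enzyme activity. Unconverted arginine was trapped on a cation-exchange filter plate, citrulline washed out, and bound arginine counted by scintillation; % inhibition versus no-compound reactions.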

Compound	HTS-NOS assay: % inhibition (10 μM)
[6-(acetyl-{7-methyl-2-[5-(2-nitro-phenyl)-furan-2-yl]-imidazo[1,2-a]pyridin-3-yl}-amino)-hexyl]-methylidyne-ammonium [Example 215]	50%
[C-]#[N+]CCCCCCNc1c(-c2cccnc2)nc2cc(C)cc(C)n12 [Example 59, [6-(5,7-Dimethyl-2-pyridin-3-yl-imidazo[1,2-a]pyridin-3-ylamino)-hexyl]-methylidyne-ammonium]	57%
[C-]#[N+]CCCCCCNc1c(-c2ccccn2)nc2cc(C)ccn12 [Example 107, Methylidyne-[6-(7-methyl-2-pyridin-2-yl-imidazo[1,2-a]pyridin-3-ylamino)-hexyl]-ammonium]	50%
Cc1ccn2c(NC(C)(C)CC(C)(C)C)c(-c3ccc(CO)o3)nc2c1 [Example 102, {5-[7-Methyl-3-(1,1,33-tetramethyl-butylamino)-imidazo[1,2-a]pyridin-2-yl]-furan-2-yl}-methanol]	59%

Same assay, conditions: read-out: HTS-NOS assay: % inhibition (10 μM)

inhibition at 10 µM	Compound
53%	COc1ccccc1-c1nc2c(C)cccn2c1N(C(C)=O)C(C)(C)CC(C)(C)C [Example 210, N-[2-(2-methoxy-phenyl)-8-methyl-imidazo[1,2-a]pyridin-3-yl]-N-(1,1,3,3-tetramethyl-butyl)-acetamide]
53%	CC(=O)N(c1c(-c2cccs2)nc2c(Cl)cc(Cl)cn12)C(C)(C)C [Example 277, N-tert-butyl-N-(6,8-dichloro-2-thiophen-2-yl-imidazo[1,2-a]pyridin-3-yl)-acetamide]
68%	COc1cccc(-c2nc3cc(C)cc(C)n3c2Nc2c(C)cccc2C)c1OC [Example 48, [2-(2,3-Dimethoxy-phenyl)-5,7-dimethyl-imidazo[1,2-a]pyridin-3-yl]-(2,6-dimethyl-phenyl)-amine]
53%	Cc1cc(C)n2c(NC(C)(C)CC(C)(C)C)c(-c3cc4ccccc4o3)nc2c1 [Example 66, (2-Benzofuran-2-yl-5,7-dimethyl-imidazo[1,2-a]pyridin-3-yl)-(1,1,3,3-tetramethyl-butyl)-amine]
52%	CCc1ccn2c(Nc3ccc(F)c(Cl)c3)c(-c3cc4ccccc4o3)nc2c1 [Example 318, (2-Benzofuran-2-yl-7-ethyl-imidazo[1,2-a]-pyridin-3-yl)-(3-chloro-4-fluoro-phenyl)-amine]
52%	Cc1ccc2nc(-c3ccc(C(=O)O)s3)c(NC(C)(C)C)n2c1 [Example 127, 5-(3-Tert-butylamino-6-methyl-imidazo[1,2-a]pyridin-2-yl)-thiophene-2-carboxylic acid]
51%	Cc1ccn2c(NC(C)(C)CC(C)(C)C)c(-c3ccccc3F)nc2c1 [Example 17, [2-(2-Fluoro-phenyl)-7-methyl-imidazo[1,2-a]pyridin-3-yl]-(1,1,3,3-tetramethyl-butyl)-amine]
53%	CCCCN(C(C)=O)c1c(-c2ccc(C)cc2)nc2ccc(C)cn12 [Example 280, N-butyl-N-(6-methyl-2-p-tolyl-imidazo[1,2-a]pyridin-3-yl)-acetamide]
58%	CCCCN(C(C)=O)c1c(-c2ccc(C)cc2)nc2nc(C)ccn12 [Example 287, N-butyl-N-(7-methyl-2-p-tolyl-imidazo[1,2-a]pyrimidin-3-yl)-acetamide]
50%	CC(=O)N(c1c(-c2ccc(C(=O)O)s2)nc2ccccn12)C(C)(C)CC(C)(C)C [Example 176, 5-{3-[acetyl-(1,1,3,3-tetramethyl-butyl)-amino]-imidazo[1,2-a]pyridin-2-yl}-thiophene-2-carboxylic acid]
56%	Cc1ccc2nc(-c3ccc(Cl)cc3Cl)c(Nc3c(C)cccc3C)n2c1 [Example 134, [2-(2,4-Dichlorophenyl)-6-methyl-imidazo[1,2-a]pyridin-3-yl]-(2,6-dimethyl-phenyl)-amine]
57%	Cc1ccn2c(NC(C)(C)C)c(-c3ccco3)nc2c1 [Example 68, Tert-butyl-(2-furan-2-yl-7-methyl-imidazo[1,2-a]pyridin-3-yl)-amine]
55%	Cc1cc(C)n2c(Nc3c(C)cccc3C)c(-c3sccc3Br)nc2c1 [Example 42, [2-(3-Bromo-thiophen-2-yl)-5,7-dimethyl-imidazo[1,2-a]pyridin-3-yl]-(2,6-dimethyl-phenyl)-amine]
50%	O=[N+]([O-])c1cccc2cn[nH]c12 [7-nitroindazole, reference compound]
52%	CCCCN(C(C)=O)c1c(-c2ccccn2)nc2c(C(=O)O)cccn12 [Example 231, 3-(acetyl-butyl-amino)-2-pyridin-2-yl-imidazo[1,2-a]pyridine-8-carboxylic acid]
55%	CC(=O)N(c1c(-c2cccc(Cl)c2Cl)nc2ccccn12)C1CCCCC1 [Example 273, N-cyclohexyl-N-[2-(2,3-dichloro-phenyl)-imidazo[1,2-a]pyridin-3-yl]-acetamide]
61%	COc1ccccc1-c1nc2cc(C)cc(C)n2c1NC(C)(C)CC(C)(C)C [Example 53, [2-(2-Methoxy-phenyl)-5,7-dimethyl-imidazo[1,2-a]pyridin-3-yl]-(1,1,3,3-tetramethyl-butyl)-amine]
57%	CC(=O)N(c1c(C)cccc1C)c1c(-c2ccccc2C)nc2cc(C)cc(C)n12 [Example 148, N-(2,6-dimethyl-phenyl)-N-(5,7-dimethyl-2-o-tolyl-imidazo[1,2-a]pyridin-3-yl)-acetamide]

inhibition at 10 µM	Compound
61%	CCCCNc1c(-c2cccc(O)c2)nc2cc(C)cc(C)n12 [Example 73, 3-(3-Butylamino-5,7-dimethyl-imidazo[1,2-a]pyridin-2-yl)-phenol]
56%	CCCCNc1c(C2CCCCC2)nc2cc(C)ccn12 [Example 30, Butyl-(2-cyclohexyl-7-methyl-imidazo[1,2-a]pyridin-3-yl)-amine]
62%	Cc1cc(C)n2c(NC3CCCCC3)c(-c3ccco3)nc2c1 [Example 26, Cyclohexyl-(2-furan-2-yl-5,7-dimethyl-imidazo[1,2-a]pyridin-3-yl)-amine]
56%	Cc1ccn2c(NC3CCCCC3)c(-c3cccc4ccccc34)nc2c1 [Example 16, Cyclohexyl-(7-methyl-2-naphthalen-1-yl-imidazo[1,2-a]pyridin-3-yl)-amine]
50%	CC(=O)N(c1c(-c2cc3ccccc3o2)nc2cc(C)ccn12)C(C)(C)CC(C)(C)C [Example 216, N-(2-benzofuran-2-yl-7-methyl-imidazo[1,2-a]pyridin-3-yl)-N-(1,1,3,3-tetramethyl-butyl)-acetamide]
54%	Cc1ccn2c(NC(C)(C)CC(C)(C)C)c(-c3ccc(Br)o3)nc2c1 [Example 86, [2-(5-Bromofuran-2-yl)-7-methyl-imidazo[1,2-a]pyridin-3-yl]-(1,1,3,3-tetramethyl-butyl)-amine]
68%	CC(=O)N(c1c(-c2ccco2)nc2cc(C)cc(C)n12)C(C)(C)CC(C)(C)C [Example 143, N-(2-furan-2-yl-5,7-dimethyl-imidazo[1,2-a]pyridin-3-yl)-N-(1,1,3,3-tetramethylbutyl)-acetamide]
64%	COc1ccc(-c2nc3cc(C)ccn3c2Nc2c(C)cccc2C)cc1OC [Example 54, [2-(3,4-Dimethoxy-phenyl)-7-methyl-imidazo[1,2-a]pyridin-3-yl]-(2,6-dimethyl-phenyl)-amine]
57%	CC(=O)N(c1c(C)cccc1C)c1c(-c2cccc(Cl)c2Cl)nc2cc(C)cc(C)n12 [Example 169, N-[2-(2,3-dichloro-phenyl)-5,7-dimethyl-imidazo[1,2-a]pyridin-3-yl]-N-(2,6-dimethyl-phenyl)-acetamide]
60%	CC(=O)N(c1c(C)cccc1C)c1c(C(C)(C)C)nc2cc(C)cc(C)n12 [Example 179, N-(2-tert-butyl-5,7-dimethyl-imidazo[1,2-a]pyridin-3-yl)-N-(2,6-dimethylphenyl)-acetamide]
64%	CC(=O)N(c1c(-c2ccccn2)nc2cc(C)ccn12)C1CCCCC1 [Example 263, N-cyclohexyl-N-(7-methyl-2-pyridin-2-yl-imidazo[1,2-a]pyridin-3-yl)-acetamide]
53%	COc1cc(-c2nc3nc(C)cc(C)n3c2N(C(C)=O)C2CCCCC2)ccc1OC(C)=O [Example 252, acetic acid 4-[3-(acetyl-cyclohexyl-amino)-5,7-dimethyl-imidazo[1,2-a]-pyrimidin-2-yl]-2-methoxy-phenyl ester]
50%	CC(=O)N(c1c(-c2ccc(C3OCCO3)o2)nc2cc(C)cc(C)n12)C(C)(C)CC(C)(C)C [Example 188, N-[2-(5-[1,3]dioxolan-2-yl-furan-2-yl)-5,7-dimethyl-imidazo[1,2-a]pyridin-3-yl]-N-(1,1,3,3-tetramethyl-butyl)-acetamide]
59%	CC(=O)N(c1c(-c2ccc(C(=O)O)s2)nc2ccccn12)C1CCCCC1 [Example 229, 5-[3-(acetyl-cyclohexyl-amino)-imidazo[1,2-a]pyridin-2-yl]-thiophene-2-carboxylic acid]
51%	CC(=O)N(c1c(-c2sccc2Br)nc2ccccn12)C1CCCCC1 [Example 161, N-[2-(3-bromo-thiophen-2-yl)-imidazo[1,2-a]pyridin-3-yl]-N-cyclohexyl-acetamide]
51%	CC(=O)N(c1c(-c2ccc(Br)o2)nc2c(C)cccn12)C(C)(C)CC(C)(C)C [Example 271, N-[2-(5-bromo-furan-2-yl)-8-methyl-imidazo[1,2-a]pyridin-3-yl]-N-(1,1,3,3-tetramethyl-butyl)-acetamide]
32%	CCc1ccn2c(NCc3ccccc3OC)c(-c3ccc([N+](=O)[O-])o3)nc2c1 [Example 313, [7-Ethyl-2-(5-nitro-furan-2-yl)-imidazo[1,2-a]pyridin-3-yl]-(2-methoxy-benzyl)-amine]
